Tested on: NCI-H1876 complex spheroid growth, % test/control
Experiment: Anticancer human tumor NCI-H1876 cell line growth inhibition [Asc];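 note: compound exposure lasted 7 days starting three days after seeding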;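 for viability, T/C: 100% = DMSO vehicle control wells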
Conditions: for IC50: curve of first compound; for viability, T/C: stronger effect = lower value; active = viability on the fitted dose curve at most 10% of control; inactive = the rest
Outline: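 Stromal components (HUVEC and hMSC) are co-assembled with the cancer cells into multicellular spheroids. Drugs are then added singly or paired, at concentrations falling by half-log increments from a clinically achievable maximum, capped at 10 microM without known Cmax.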

C=C(F)C(=O)N1CCN(c2nc(OCC3CCCN3C)nc3c2CCN(c2cccc4cccc(Cl)c24)C3)CC1CC#N (centres undefined) + CCN1C(C(=O)NC23CCC(C(=O)O)(CC2)CC3)C(c2cccc(Cl)c2F)C2(C(=O)Nc3cc(Cl)ccc32)C12CCCCC2
6.95 µM: IC50 (second compound 0.03 µM)
6.65 µM: IC50 (second compound 0.00949 µM)
6.91 µM: IC50 (second compound 0.0949 µM)
active: viability, T/C (second compound 3 µM, first compound 10 µM) 7.68%
6.79 µM: IC50 (second compound 0.3 µM)
inactive: viability, T/C (second compound 0.00949 µM, first compound 0.0316 µM) 93.6% | viability, T/C (second compound 0.00949 µM, first compound 0.1 µM) 102% | viability, T/C (second compound 0.00949 µM, first compound 0.316 µM) 102% | viability, T/C (second compound 0.00949 µM, first compound 1 µM) 107% | viability, T/C (second compound 0.00949 µM, first compound 3.16 µM) 107% | viability, T/C (second compound 0.00949 µM, first compound 10 µM) 21.5% | viability, T/C (second compound 0.03 µM, first compound 0.0316 µM) 104% | viability, T/C (second compound 0.03 µM, first compound 0.1 µM) 108% | viability, T/C (second compound 0.03 µM, first compound 0.316 µM) 109% | viability, T/C (second compound 0.03 µM, first compound 1 µM) 110% | viability, T/C (second compound 0.03 µM, first compound 3.16 µM) 106% | viability, T/C (second compound 0.03 µM, first compound 10 µM) 24% | viability, T/C (second compound 0.0949 µM, first compound 0.0316 µM) 107% | viability, T/C (second compound 0.0949 µM, first compound 0.1 µM) 99.3% | viability, T/C (second compound 0.0949 µM, first compound 0.316 µM) 101% | viability, T/C (second compound 0.0949 µM, first compound 1 µM) 98.5% | viability, T/C (second compound 0.0949 µM, first compound 3.16 µM) 101% | viability, T/C (second compound 0.0949 µM, first compound 10 µM) 26% | viability, T/C (second compound 0.3 µM, first compound 0.0316 µM) 104% | viability, T/C (second compound 0.3 µM, first compound 0.1 µM) 92.1% | viability, T/C (second compound 0.3 µM, first compound 0.316 µM) 99.3% | viability, T/C (second compound 0.3 µM, first compound 1 µM) 110% | viability, T/C (second compound 0.3 µM, first compound 3.16 µM) 111% | viability, T/C (second compound 0.3 µM, first compound 10 µM) 22.9% | viability, T/C (second compound 0.949 µM, first compound 0.0316 µM) 111% | viability, T/C (second compound 0.949 µM, first compound 0.1 µM) 107% | viability, T/C (second compound 0.949 µM, first compound 0.316 µM) 108% | viability, T/C (second compound 0.949 µM, first compound 1 µM) 116% | viability, T/C (second compound 0.949 µM, first compound 3.16 µM) 109% | viability, T/C (second compound 0.949 µM, first compound 10 µM) 12.7% | viability, T/C (second compound 3 µM, first compound 0.0316 µM) 109% | viability, T/C (second compound 3 µM, first compound 0.1 µM) 109% | viability, T/C (second compound 3 µM, first compound 0.316 µM) 110% | viability, T/C (second compound 3 µM, first compound 1 µM) 112% | viability, T/C (second compound 3 µM, first compound 3.16 µM) 93.8%
6.4 µM: IC50 (second compound 0.949 µM)
5.67 µM: IC50 (second compound 3 µM)

Cn1ncnc1[C@H]1c2n[nH]c(=O)c3cc(F)cc(c23)N[C@@H]1c1ccc(F)cc1 + Cc1c(S(C)(=O)=O)c(-c2cc(F)cc(N3CCN(c4ccc(NS(=O)(=O)c5ccc(NC(CCN6CCC(C(=O)OCCCP(=O)(O)O)CC6)CSc6ccccc6)c(S(=O)(=O)C(F)(F)F)c5)cc4)CC3)c2)c(-c2ccc(Cl)cc2)n1C(C)C
> 0.1 µM: IC50 (second compound 0.0316 µM) | IC50 (second compound 0.1 µM) | IC50 (second compound 0.316 µM) | IC50 (second compound 1 µM) | IC50 (second compound 3.16 µM) | IC50 (second compound 10 µM)
inactive: viability, T/C (second compound 0.0316 µM, first compound 0.000316 µM) 89.8% | viability, T/C (second compound 0.0316 µM, first compound 0.001 µM) 82.8% | viability, T/C (second compound 0.0316 µM, first compound 0.00316 µM) 101% | viability, T/C (second compound 0.0316 µM, first compound 0.01 µM) 94.2% | viability, T/C (second compound 0.0316 µM, first compound 0.0316 µM) 106% | viability, T/C (second compound 0.0316 µM, first compound 0.1 µM) 81.6% | viability, T/C (second compound 0.1 µM, first compound 0.000316 µM) 100% | viability, T/C (second compound 0.1 µM, first compound 0.001 µM) 92.9% | viability, T/C (second compound 0.1 µM, first compound 0.00316 µM) 98.4% | viability, T/C (second compound 0.1 µM, first compound 0.01 µM) 111% | viability, T/C (second compound 0.1 µM, first compound 0.0316 µM) 96.7% | viability, T/C (second compound 0.1 µM, first compound 0.1 µM) 86.5% | viability, T/C (second compound 0.316 µM, first compound 0.000316 µM) 92% | viability, T/C (second compound 0.316 µM, first compound 0.001 µM) 101% | viability, T/C (second compound 0.316 µM, first compound 0.00316 µM) 95.5% | viability, T/C (second compound 0.316 µM, first compound 0.01 µM) 110% | viability, T/C (second compound 0.316 µM, first compound 0.0316 µM) 94.7% | viability, T/C (second compound 0.316 µM, first compound 0.1 µM) 74.3% | viability, T/C (second compound 1 µM, first compound 0.000316 µM) 110% | viability, T/C (second compound 1 µM, first compound 0.001 µM) 89.8% | viability, T/C (second compound 1 µM, first compound 0.00316 µM) 94.7% | viability, T/C (second compound 1 µM, first compound 0.01 µM) 94.7% | viability, T/C (second compound 1 µM, first compound 0.0316 µM) 91.7% | viability, T/C (second compound 1 µM, first compound 0.1 µM) 64% | viability, T/C (second compound 3.16 µM, first compound 0.000316 µM) 94.2% | viability, T/C (second compound 3.16 µM, first compound 0.001 µM) 95.7% | viability, T/C (second compound 3.16 µM, first compound 0.00316 µM) 94.1% | viability, T/C (second compound 3.16 µM, first compound 0.01 µM) 92.6% | viability, T/C (second compound 3.16 µM, first compound 0.0316 µM) 81% | viability, T/C (second compound 3.16 µM, first compound 0.1 µM) 53.7% | viability, T/C (second compound 10 µM, first compound 0.000316 µM) 100% | viability, T/C (second compound 10 µM, first compound 0.001 µM) 106% | viability, T/C (second compound 10 µM, first compound 0.00316 µM) 84.2% | viability, T/C (second compound 10 µM, first compound 0.01 µM) 95.9% | viability, T/C (second compound 10 µM, first compound 0.0316 µM) 80.4% | viability, T/C (second compound 10 µM, first compound 0.1 µM) 55.8%
